The results in this text go back to US12060588B2, “Methods of editing DNA methylation” (Whitehead Institute for Biomedical Research, priority 2016, dated 2024).

In this experiment the test system is Snrpn promoter region (Dazl-Snrpn-GFP reporter). Description: Activation of the Dazl-Snrpn-GFP methylation reporter in mESCs (flow cytometry). The format is cell-based, mouse. The settings on record: lentiviral infection, 3 days, FACS. On the procedure:
FIGS. 1A-IF depict activation of the Daz1-Snrpn-GFP reporter by dCas9-Tet1. […] FIG. 1B is a schematic representation of targeting the Snrpn promoter region by dCas9-Tet1 with specific gRNAs to erase methylation and activate GFP expression. […] Percentage of GFP positive cells were calculated by flow cytometric analysis of these cells 3-day post infection, and shown as the mean percentages of GFP positive cells±SD of two biological replicates. Note that the percentages of GFP-positive cells are expressed as the fraction of infected Cherry-positive cells. […] Scale bar: 250 um. Right: provides percentages of GFP positive colonies were quantified, and shown as the mean percentages of GFP positive cells±SD of two biological replicates. […] FIG. 1F provides methylation levels of individual CpGs in the Snrpn promoter region and the adjacent Dazl locus. Shown is the mean percentage±SD of two biological replicates.
To assess whether the dCas9-Tet1 and -Dnmt3a fusion constructs would induce demethylation or de novo methylation, respectively, of specific sequences, we utilized a methylation reporter system previously developed in our laboratory (Stelzer et al., 2015). This reporter system consists of a synthetic methylation-sensing promoter (conserved sequence elements from the promoter of an imprinted gene, Snrpn) that controls the expression of a green fluorescence protein (GFP). […]
A general note: In flow cytometry, cells or beads pass a laser one at a time.

Consider “dCas9-Tet1: catalytically inactive Cas9 (dCas9) fused through NLS to the Tet1 catalytic domain, SEQ ID NO: 159; lentivirally expressed with gRNAs”, for which the “GFP positive cells among the Cherry positive population” value (with 4 target gRNAs (Snrpn promoter)) is “about 26%” and the “GFP positive cells among the Cherry positive population” value (with a scrambled gRNA) is given as 1%.
